# In patent publication US12029721B2, “Compositions comprising cannabinoids and methods of use” (Schedule 1 Therapeutics, Inc., priority 2021, dated 2024):
# What was measured:
# Assay type in all cases: in vivo, mouse
# wild-type CD1 mice [1] = test: Light/dark assay, CGRP-induced light aversion (Test 1)
# Protocol: All drugs were administered by intraperitoneal (i.p.) injection. CGRP and caffeine were administered at 10 μl/g bodyweight with a 30 g×0.5 needle. CBD, THC and the diverse ratios of CBD:THC were administered at 3.3 μl/g bodyweight with a 23 g×0.5 needle. Rat α-CGRP (Sigma-Aldrich, USA) was administered at 0.1 mg/kg, caffeine (Sigma-Aldrich, USA) was administered at 100 mg/kg, and both were diluted in vehicle, Dulbecco PBS (Hyclone, GE Healthcare Life Science, USA). CBD was administered at 1 or 100 mg/kg, THC was administered at 1 mg/kg, and both were diluted in vehicle sunflower oil (Sigma-Aldrich, USA) Animals were gently held but not anesthetized during injection. Mice were allowed to recover for 30 to 60 min in their home cages before testing (see figure legend and experimental design for precisions).
# (§1) The light/dark assay was used to measure the animals' aversion to bright light, which is a surrogate for photophobia. Briefly, mice are placed individually in light/dark boxes that consist in two compartments, one brightly lit and the other not lit, black and fully enclosed. Mice can move freely in between them. An infrared beam tracking system (Med Associates) monitors and quantifies the behavior. Light-aversive animals will spend more time in the dark compartment than naïve animals Data were collected using Activity Monitor version 7.06 from twelve chambers as previously described. Mice were pre-exposed to the chamber once (baseline, data not shown) to reduce exploratory drive, then tested with bright light (25,000 lux). Data were collected for 30 min and analyzed in sequential 5 min intervals. The time in light was reported as the mean+/−SEM of all the mice at each interval and as the mean+/−SEM of the average time per interval for each individual mouse.
# Test 1: test the efficacy of CBD and/or THC on CGRP-induced light aversion. Drug administration was performed i.p. by ASW or AK, 60 minutes prior to testing. Thirty minutes before testing, animals were injected a second time with CGRP (0.1 mg/kg) in order to induce the migraine-like state. Only one group was administered with PBS and represents the negative control in this run. The group that received sunflower oil+CGRP represents the positive control. Those injections were also performed i.p by ASW or AK. Thirty minutes later, animals were placed in the light aversion chambers, and tested for 30 minutes.
# wild-type CD1 mice [2] = test: Rotarod assay (motor function); details: for time to fall from the rod, average across 3 trials on treatment day: FIG. 11, CBD 100 mg/kg, THC 1 mg/kg, 1:1, 100:1 given 60 min before, diazepam 5 mg/kg i.p. 30 min before; for latency to fall from the rod (motor function): FIG. 1A, first cohort, 3 consecutive 5 min trials, caffeine 100 mg/kg i.p. as positive control
# Protocol: Locomotor function was assessed using the rotarod (see Assay description and relevant methods in Example 5). Mice are placed on a turning rod with increasing speed of rotation. Latency to fall from the rod is collected.
# The rotarod assay was used to measure impaired motor function in mice. The assay is divided into three trials of 5 min each separated by 10 min of resting time. For each trial, mice are place on a stationary rod. Once the animal is in place, the rod rotation was initiated at a rate of 4 rpm per min, with increasing speed up to 60 rpm at 5 min. Each animal was trained for two days following this protocol and tested on the third day. The latency to fall from the rod was reported as the mean+/−SEM of all the mice for each trial.
# A week after Y-maze, motor function was assessed using rotarod. Administration of drugs was performed 60 min prior to testing except for caffeine (positive control) which was administered 30 min prior to testing.
# Animals used in this experiment were also used for light aversion and spatial memory, and were tested a third time in the rotarod assay. Briefly, two weeks after the last Y-maze run, animals were subjected to 3 consecutive days of rotarod assay. The first two days were used for habituation, then animals were divided in 6 different treatment groups: • negative control group: vehicle (sunflower oil), • positive control group: diazepam (5 mg/kg i.p.), • CBD (100 mg/kg), • THC (1 mg/kg), • 1:1 (1 mg/kg of both CBD and THC), and • 100:1 (100 mg/kg of CBD and 1 mg/kg of THC).
# All treatments were administered 60 minutes prior to the third day of rotarod assay, except for diazepam which was administered 30 minutes prior to the assay.
# wild-type CD1 mice [3] = test: Y-maze assay (spatial memory); details: treatments 55 minutes prior to the first trial; CBD 100 mg/kg, THC 1 mg/kg, 1:1, 100:1
# Protocol: The Y-maze assay was used to measure spatial memory using a 3-arm maze. The assay is divided into two trials separated by an intertrial period. During the first trial, one arm (novel arm) is closed, and mice are left to explore the two other arms for 5 min. Mice are then placed back in their home cages for the 2 min intertrial period. During the second trial, mice are able to explore all arms. A mouse with a good spatial memory will enter the previously unexplored (novel) arm more frequently than the other arms. A mouse with poor spatial memory will show no preference. The number of entries and time in the novel arm during the second trial was reported as the mean+/−SEM of all the mice at each interval (30 sec) and as the mean+/−SEM of the total time for the trial for each individual mouse.
# A week after Test 2, spatial memory was assessed using Y-maze. Administration of drugs was performed 60 min prior to testing except for CGRP (positive control) which was administered 30 min prior to testing.
# Animals used in this experiment were also used for light aversion (and later rotarod). […]
# All treatments were administered 55 minutes prior to the first 5-minute trial, and therefore 62 minutes before the second 2-minute trial. No effect of CBD, THC and CBD:THC ratios on spatial memory was assessed by the Y-maze.
# wild-type CD1 mice [4] = test: Light/dark assay without CGRP trigger (Test 2); details: FIG. 4, absence of the CGRP trigger; average per 5 minutes
# Description: as §1
# Test 2: test the possible effects of CBD and/or THC by themselves on light aversion. Animals were given a week to recover. Then the same groups were used for Test 2, and only the second injection was reversed. All groups received vehicle 30 minutes before testing, except for the first group that was administered with CGRP and was the positive control for this test. […]
# [5] = FIG. 5A, all mice, co-administered with CGRP
# [6] = FIGS. 3A-3B, all mice, drugs i.p. 60 min, CGRP 0.1 mg/kg 30 min before testing, CBD 100 mg/kg, THC 1 mg/kg
Molecule,time spent resting in the dark (CGRP-induced increase) (wild-type CD1 mice [1]; [5]),time spent in the light (CGRP-induced light aversion) (wild-type CD1 mice [1]; [6]),"time to fall from the rod, average across 3 trials on treatment day (wild-type CD1 mice [2])",spatial memory: number of entries and time spent in the novel arm during trial 2 (wild-type CD1 mice [3]),latency to fall from the rod (motor function) (wild-type CD1 mice [2]),further results
"C=C(C)[C@@H]1CCC(C)=C[C@H]1c1c(O)cc(CCCCC)cc1O [CBD, cannabidiol]",neither CBD alone nor the 1:1 ratio reversed this increased resting time,failed to reverse the CGRP-induced decrease in time spent in the light,yielded similar results as the vehicle group,No effect,,
calcitonin gene-related peptide [CGRP],induces a significant increase in the time spent resting in the dark,induces a significant decrease in time spent in the light,,,,"time spent in the light (CGRP-induced light aversion) (wild-type CD1 mice [1]; FIG. 3D, male mice): inducing a strong and significant decrease of the time spent in the light compartment; time spent resting in the light compartment (wild-type CD1 mice [1]; FIG. 6, data as a function of time): does not increase the time spent resting in the light compartment; time spent in the light (CGRP-induced light aversion) (wild-type CD1 mice [1]; FIG. 7, experiment with 30:1, 100:1 as control ratio): induces a significant decrease in time spent in the light; average time in the light (wild-type CD1 mice [4]): spending less time in the light than the veh+veh mice"
Cn1c(=O)c2c(ncn2C)n(C)c1=O [caffeine],,,,,didn't yield the expected results,
CN1C(=O)CN=C(c2ccccc2)c2cc(Cl)ccc21 [diazepam],,,showed a robust decrease in time to fall from the rod,,,"latency to fall from the rod (wild-type CD1 mice [2]; FIG. 1B, rotarod trial with diazepam as positive control): produced the expected increased time to fall"
"CCCCCc1cc(O)c2c(c1)OC(C)(C)[C@@H]1CCC(C)=C[C@@H]21 [THC, tetrahydrocannabinol]",seem to attenuate the phenotype,failed to reverse the CGRP-induced decrease in time spent in the light,showed increases in time to fall that were not significant,No effect,seemed to increase motor function (trend only),"time spent resting in the dark (CGRP-induced increase) (wild-type CD1 mice [1]; FIG. 5C, male mice): seemed to have an effect"
